In general, IC50 refers to the midpoint of a concentration-inhibition curve.

SMILES strings stand for the structures.

Data on 56 compounds can be found in patent US11345702B1 (Myoforte Therapeutics, Inc., priority 2020, dated 2022).

In this assay the target is 15-PGDH/HPGD (Homo sapiens (Human), UniProt P15428). Description: hPGDH inhibitor screening biochemical assay. The conditions noted are these: read-out: hPGDH: Average IC50. The method, then: A hydroxyprostaglandin dehydrogenase inhibition screening biochemical assay can be performed to assess the synthesized inhibitors provided herein. Provided herein is an exemplary biochemical assay for hPGDH inhibitor screening.
15-PGDH/HPGD, sequence (P15428 whole entry): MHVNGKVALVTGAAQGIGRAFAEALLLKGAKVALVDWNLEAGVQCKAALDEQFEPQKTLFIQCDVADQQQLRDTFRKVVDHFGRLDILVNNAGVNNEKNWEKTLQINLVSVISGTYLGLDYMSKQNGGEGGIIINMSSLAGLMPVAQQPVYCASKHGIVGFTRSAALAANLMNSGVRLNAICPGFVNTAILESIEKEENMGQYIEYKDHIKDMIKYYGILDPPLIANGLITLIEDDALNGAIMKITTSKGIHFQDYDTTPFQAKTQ
The in vitro biochemical assay can be performed in white, 384 plates in total 20 μl reaction volume consisting of 10 nM of 15-PGDH/HPGD (R&D System #5660-DH), 15 μM Prostaglandin E2 (Sigma, Cat #P5640-10MG) and 0.25 mM (3-Nicotinamide adenine dinucleotide sodium salt (Sigma, Cat #N0632-5G) made in reaction buffer (50 mM Tris-HCl, pH 7.5, 0.01% Tween 20) at 10-point dose response curve for test/tool compounds. Briefly, 5 μl (4×) of compounds solution and 5 μl (final concentration, 10 nM) of enzyme solution is added to white 384 well plates and incubated for 10 mins at 37° C. 5 μl (4×) of Prostaglandin E2 and 5 μl (4×) of β-Nicotinamide adenine dinucleotide sodium salt is added to the wells and incubated for 10 mins at room temperature. Fluorescence is recorded at ex/em=340 nm/485 nm. The percentage (%) inhibition of enzyme activity was determined relative to positive control (1% DMSO) and IC50 was calculated using GraphPad prism software (four parameter-variable slope equation).
In the case of `N#Cc1ccc(-n2ccc3cc(C(=O)N4CCC(F)(F)CC4)cnc32)cc1` [MF-DH-439], the IC50 is below 100 nM.

For the compound `COc1ccc(-n2c(CCC(F)(F)F)nc3cc(C(=O)N4CCC(F)CC4)cnc32)cc1` [MF-DH-195], the IC50 was in the range of 100 to 1000 nM.

Consider `O=C(c1ccc2c(c1)ncn2-c1cccc(Cl)c1)N1CC2CC2C1` (centres unmarked) [MF-PGDH-017], for which the 50% inhibitory concentration (IC50) is 100 to 1000 nM.

Regarding `CC(C)(C#Cc1ccc(-n2ccc3cc(C(=O)N4CCC(F)(F)CC4)cnc32)cn1)S(C)(=O)=O` [MF-DH-465, (4,4-difluoropiperidin-1-yl)(1-(6-(3-methyl-3-(methylsulfonyl)but-1-yn-1-yl)pyridin-3-yl)-1H-pyrrolo[2,3-b]pyridin-5-yl)methanone], the concentration for half-maximal inhibition (IC50) was in the range of 100 to 1000 nM.

In the case of `COc1cncc(-n2ccc3cc(C(=O)N4CCCCC4)cnc32)c1` [MF-DH-296], the half-maximal inhibitory concentration (IC50) is below 100 nM.

As to `NCc1ccc(-n2ccc3cc(C(=O)N4CCCCC4)cnc32)cc1` [MF-DH-304], the IC50 is below 100 nM.

Turning to `COc1ccc(-n2ccc3cc(C(=O)N4CCC(F)CC4)cnc32)cn1` [MF-DH-157], the IC50 was below 100 nM.

As for `CS(=O)(=O)NCCNC(=O)c1cccc(-n2ccc3cc(C(=O)N4CCC(F)(F)CC4)cnc32)c1` [MF-DH-480, 3-(5-(4,4-difluoropiperidine-1-carbonyl)-1H-pyrrolo[2,3-b]pyridin-1-yl)-N-(2-(methylsulfonamido)ethyl)benzamide], the IC50 is below 100 nM.

As to `CNC(=O)c1ccc(-n2ccc3cc(C(=O)N4CCCCC4)cnc32)cc1` [MF-DH-368], the half-inhibitory concentration (IC50) is below 100 nM.

Take `Cc1ccc(S(=O)(=O)n2ccc3cc(C(=O)N4CCCCC4)cnc32)cc1` [MF-DH-312, piperidin-1-yl(1-tosyl-1H-pyrrolo[2,3-b]pyridin-5-yl)methanone]: the IC50 is at least 1000 nM.

As for `O=C(c1ccn2c(-c3cccc(Cl)c3)cnc2c1)N1CCCCC1` [MF-PGDH-007, (3-(3-chlorophenyl)imidazo[1,2-a]pyridin-7-yl)(piperidin-1-yl)methanone], the IC50 is below 100 nM.

For the compound `NC(=O)[C@@H]1CCCN1C(=O)c1cccc(-n2ccc3cc(C(=O)N4CCC(F)(F)CC4)cnc32)c1` [MF-DH-486, (S)-1-(3-(5-(4,4-difluoropiperidine-1-carbonyl)-1H-pyrrolo[2,3-b]pyridin-1-yl)benzoyl)pyrrolidine-2-carboxamide], the half-inhibitory concentration (IC50) was below 100 nM.

On to `COc1ccc(-n2c(N)nc3cc(C(=O)N4CCC(F)CC4)cnc32)cc1` [MF-DH-115], for which the IC50 lay within 100 to 1000 nM.

As for `O=C(c1ccc2c(c1)CCCN2c1cccc(Cl)c1)N1CCCCC1` [MF-PGDH-057, (1-(3-chlorophenyl)-1,2,3,4-tetrahydroquinolin-6-yl)(piperidin-1-yl)methanone], the half-inhibitory concentration (IC50) is below 100 nM.

As for `O=C(c1ccc(COc2ccccc2-c2cnc[nH]2)cc1)N1CCCCC1` [MF-PGDH-096], the IC50 is below 100 nM.

`CCOC(=O)Cc1nc2cc(C(=O)N3CCCCC3)ccc2n1-c1cccc(Cl)c1` [MF-PGDH-030, ethyl 2-(1-(3-chlorophenyl)-5-(piperidine-1-carbonyl)-1H-benzo[d]imidazol-2-yl)acetate]: the IC50 was below 100 nM.

For `N#Cc1ccc(-n2ccc3cc(C(=O)N4CC[C@@H](F)C4)cnc32)cc1` (single isomer, unassigned) [MF-DH-575], the half-inhibitory concentration (IC50) was below 100 nM.

On to `O=C(NC1CNC1)c1ccc(-n2ccc3cc(C(=O)N4CCC(F)(F)CC4)cnc32)cc1` [MF-DH-420], for which the IC50 was below 100 nM.

For the compound `N#Cc1ccc(-n2ccc3cc(C(=S)N4CCC(F)(F)CC4)cnc32)cc1` [MF-DH-449, 4-(5-(4,4-difluoropiperidine-1-carbonothioyl)-1H-pyrrolo[2,3-b]pyridin-1-yl)benzonitrile], the IC50 is at least 1000 nM.

As to `N#Cc1ccc(-n2ccc3cc(C(=O)N4CCC(F)(F)CC4)cnc32)nc1` [MF-DH-440], the half-maximal inhibitory concentration (IC50) lay in the range of 100 to 1000 nM.

Take `O=C(c1ccc2c(c1)ncn2-c1cccc(Cl)c1)N1CCC(F)(F)CC1` [MF-PGDH-026]: the half-inhibitory concentration (IC50) was below 100 nM.

With `COc1ccc(-n2c(NC(C)=O)nc3cc(C(=O)N4CCC(F)CC4)cnc32)cc1` [MF-DH-116], the IC50 is at least 1000 nM.

For `O=C(c1ccc2c(c1)ncn2-c1cccc(Cl)c1)N1CCCC1` [MF-PGDH-046], the IC50 lay within 100 to 1000 nM.

In the case of `O=C(O)[C@@H]1CCCN1C(=O)c1ccc(-n2ccc3cc(C(=O)N4CCC(F)(F)CC4)cnc32)cc1` [MF-DH-432], the 50% inhibitory concentration (IC50) is below 100 nM.

As to `COc1ccccc1C(=O)N(C)c1ccc(C(=O)N2CCCCC2)cc1` [MF-PGDH-042], the half-inhibitory concentration (IC50) was at least 1000 nM.

In the case of `COc1ccc(-n2ccc3cc(C(=O)N4C[C@H](C)C[C@H](C)C4)cnc32)cc1` [MF-DH-329, ((3R,5S)-3,5-dimethylpiperidin-1-yl)(1-(4-methoxyphenyl)-1H-pyrrolo[2,3-b]pyridin-5-yl)methanone], the IC50 is below 100 nM.

As to `O=C(O)c1ccc(-n2ccc3cc(C(=O)N4CCC(F)(F)CC4)cnc32)nc1` [MF-DH-469], the IC50 is below 100 nM.

Regarding `Cn1cc(-n2ccc3cc(C(=O)N4CCCCC4)cnc32)cn1` [MF-PGDH-076], the 50% inhibitory concentration (IC50) was below 100 nM.

In the case of `O=C(c1cnc2c(c1)c(Cl)cn2-c1cncc(Cl)c1)N1CCCCC1` [MF-DH-274], the concentration for half-maximal inhibition (IC50) is below 100 nM.

`O=C(c1cnc2c(ccn2-c2ccncn2)c1)N1CCC(F)CC1` [MF-DH-131]: the IC50 was below 100 nM.

With `COc1ccc(-n2cnc3cc(C(=O)N4CCCCC4)ccc32)cc1` [MF-PGDH-008], the IC50 is below 100 nM.

As for `O=C(c1ccc2c(c1)nnn2-c1cccc(Cl)c1)N1CCCCC1` [MF-PGDH-011, (1-(3-chlorophenyl)-1H-benzo[d][1,2,3]triazol-5-yl)(piperidin-1-yl)methanone], the IC50 is below 100 nM.

As for `CC(N)c1cccc(-n2ccc3cc(C(=O)N4CCCCC4)cnc32)c1` (centres unmarked) [MF-DH-376, (1-(3-(1-aminoethyl)phenyl)-1H-pyrrolo[2,3-b]pyridin-5-yl)(piperidin-1-yl)methanone], the IC50 was 100 to 1000 nM.

In the case of `COc1ccccc1C(=O)Nc1ccc(C(=O)N2CCCCC2)cc1` [MF-PGDH-041], the IC50 is below 100 nM.

As for `O=C(c1cnc2c(ccn2-c2cncc(Cl)c2)c1)N1CCCCC1` [MF-DH-295], the IC50 was below 100 nM.

`COc1ccc(-n2ccc3cc(C(=O)N4[C@H](C)CCC[C@@H]4C)cnc32)cc1` [MF-DH-328, ((2R,6S)-2,6-dimethylpiperidin-1-yl)(1-(4-methoxyphenyl)-1H-pyrrolo[2,3-b]pyridin-5-yl)methanone]: the IC50 lay in the range of 100 to 1000 nM.

On to `Nc1cc(-n2ccc3cc(C(=O)N4CCCCC4)cnc32)ccn1` [MF-DH-317], for which the concentration for half-maximal inhibition (IC50) is below 100 nM.

Consider `COc1cccc(C(=O)Nc2ccc(C(=O)N3CCCCC3)cc2)c1` [MF-PGDH-089], for which the half-maximal inhibitory concentration (IC50) was 100 to 1000 nM.

Regarding `COc1cncc(-n2cc(Cl)c3cc(C(=O)N4CCCCC4)cnc32)c1` [MF-DH-275], the half-inhibitory concentration (IC50) was below 100 nM.

On to `COc1cc(C(=O)N2CCC(F)CC2)ccc1COc1ccccc1Cl` [MF-DH-118], for which the IC50 lay in the range of 100 to 1000 nM.

Take `Cc1cn(-c2cncnc2)c2ccc(C(=O)N3CCC(F)CC3)cc12` [MF-DH-178, (4-fluoropiperidin-1-yl)(3-methyl-1-(pyrimidin-5-yl)-1H-indol-5-yl)methanone]: the IC50 lay in the range of 100 to 1000 nM.

For the compound `O=C(c1cnc2c(ccn2-c2ccc(O)nc2)c1)N1CCCCC1` [MF-DH-321], the 50% inhibitory concentration (IC50) was below 100 nM.

Turning to `N#Cc1ncc(-n2ccc3cc(C(=O)N4CCCCC4)cnc32)cn1` [MF-DH-397], the 50% inhibitory concentration (IC50) is below 100 nM.

For `Cn1cc(-c2cccc(Cl)c2)c2ccc(C(=O)N3CCCCC3)cc21` [MF-PGDH-054, (3-(3-chlorophenyl)-1-methyl-1H-indol-6-yl)(piperidin-1-yl)methanone], the half-inhibitory concentration (IC50) was below 100 nM.

As to `COc1ccc(-n2ccc3cc(C(=O)N4CCC(C(F)(F)F)CC4)cnc32)cc1` [MF-DH-324], the IC50 was 100 to 1000 nM.

For `NC(=O)c1ccc(-n2ccc3cc(C(=O)N4CCCCC4)cnc32)cc1` [MF-DH-299], the IC50 was below 100 nM.

For `CC(C)(O)c1cccc(-n2ccc3cc(C(=O)N4CCCCC4)cnc32)c1` [MF-DH-375], the 50% inhibitory concentration (IC50) was in the range of 100 to 1000 nM.

As for `O=C(c1cnc2c(ccn2-c2cccc(CO)c2)c1)N1CCC(F)CC1` [MF-DH-348], the IC50 is below 100 nM.

`O=C(NC1CC1)c1ccc2c(c1)ncn2-c1cccc(Cl)c1` [MF-PGDH-063]: the half-inhibitory concentration (IC50) is 100 to 1000 nM.

Take `COc1cccc(-n2ccc3cc(C(=O)N4CCCCC4)cnc32)c1` [MF-DH-294]: the IC50 was below 100 nM.

With `N#Cc1cccc(-n2ccc3cc(C(=O)N4CCCCC4)cnc32)c1` [MF-DH-300], the IC50 is below 100 nM.

Take `O=C(c1ccc2c(c1)ncn2-c1cccc(Cl)c1)N1CCC(F)C1` (centres unmarked) [MF-PGDH-048]: the concentration for half-maximal inhibition (IC50) lay in the range of 100 to 1000 nM.

Regarding `O=C(c1cnc2c(c1)c(Cl)cn2-c1ccc2c(c1)OC(F)(F)O2)N1CCC(F)CC1` [MF-DH-250], the IC50 is below 100 nM.

For `CS(=O)(=O)c1ccc(-n2ccc3cc(C(=O)N4CCCCC4)cnc32)cc1` [MF-DH-310], the IC50 is below 100 nM.

Take `O=C(c1cnc2c(c1)c(Cl)cn2-c1ccncn1)N1CCC(F)CC1` [MF-DH-132]: the 50% inhibitory concentration (IC50) fell in the range of 100 to 1000 nM.

Take `NC(=O)CCc1nc2cc(C(=O)N3CCCCC3)ccc2n1-c1cccc(Cl)c1` [MF-PGDH-035, 3-(1-(3-chlorophenyl)-5-(piperidine-1-carbonyl)-1H-benzo[d]imidazol-2-yl)propanamide]: the IC50 was below 100 nM.
